Legend:
HCT 116 (colon) cells = test: Anti-cancer screen, growth inhibition (MTT); type: cell-based; conditions: Homo sapiens, HCT-116 cells, 48 hours of incubation
In short: (§1)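 MTT added for 3 h at 37° C, formazan dissolved in DMSO and A570 read. A T0 plate was measured at compound addition.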

NCI-H460 (lung) cells = test: Anti-cancer screen, growth inhibition (MTT); type: cell-based; conditions: Homo sapiens, 48 hours of incubation
In short: as §1

U251 (glioma) cells = test: Anti-cancer screen, growth inhibition (MTT); type: cell-based; conditions: Homo sapiens, U-251 cells, 48 hours of incubation
In short: as §1

[1] = molecular target: T1, HDAC (Mouse Liver Extract); test: HDAC inhibition assay using Boc-Lys(Ac)-AMC substrate, mouse liver enzyme; type: biochemical;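 as to IC50: IC50 for inhibition of HDAC activity in mouse liver extract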
T1 construct: Mouse liver enzyme (10 mg/ml) was diluted 1:6 with HDAC buffer

recombinant HDAC1 enzyme = molecular target: T2, recombinant HDAC1 enzyme (Homo sapiens, UniProt Q13547); test: HDAC1 inhibitory activity, recombinant enzyme; type: biochemical; conditions: recombinant HDAC1 (BIOMOL); read-out: HDAC1 inhibition (IC50)
T2 construct: purchased BIOMOL, USA
Experimental: Assay was done in 96-well black microplate and total volume of the assay was 100 μL. Mouse liver enzyme (10 mg/ml) was diluted 1:6 with HDAC buffer. Enzyme cocktail was made of 10 μL of diluted enzyme and 30 μL of HDAC buffer. 40 μl of enzyme cocktail followed by 10 μL of test compound (1 μM and 10 μM) or buffer (control) was added to each well. The plate was pre-incubated at 37° C. for 5 minutes. The HDAC reaction was started by adding 50 μl of HDAC substrate Boc-Lys (Ac)-AMC (Bachem AG, Switzerland). The plate was incubated at 37° C. for 30 minutes. The reaction was stopped by adding 100 μL of Trypsin stop solution and incubating at 37° C. for 15-30 minutes. Measuring the fluorescence at excitation wavelength of 360 nm and emission wavelength of 460 nm monitored the release of AMC. Buffer alone and substrate alone served as blank. […] (Dennis Wegener et al, Anal. Biochem, 321, 2003, 202-208).
Since the benzamide type compounds are known to have potential for HDAC class 1 specificity, active compounds were tested for HDAC1 inhibitory activity. The assay was carried out, as previously described using recombinant HDAC1 enzyme (BIOMOL, USA) and following manufacturer's instructions.

T2 sequence (Q13547 whole entry): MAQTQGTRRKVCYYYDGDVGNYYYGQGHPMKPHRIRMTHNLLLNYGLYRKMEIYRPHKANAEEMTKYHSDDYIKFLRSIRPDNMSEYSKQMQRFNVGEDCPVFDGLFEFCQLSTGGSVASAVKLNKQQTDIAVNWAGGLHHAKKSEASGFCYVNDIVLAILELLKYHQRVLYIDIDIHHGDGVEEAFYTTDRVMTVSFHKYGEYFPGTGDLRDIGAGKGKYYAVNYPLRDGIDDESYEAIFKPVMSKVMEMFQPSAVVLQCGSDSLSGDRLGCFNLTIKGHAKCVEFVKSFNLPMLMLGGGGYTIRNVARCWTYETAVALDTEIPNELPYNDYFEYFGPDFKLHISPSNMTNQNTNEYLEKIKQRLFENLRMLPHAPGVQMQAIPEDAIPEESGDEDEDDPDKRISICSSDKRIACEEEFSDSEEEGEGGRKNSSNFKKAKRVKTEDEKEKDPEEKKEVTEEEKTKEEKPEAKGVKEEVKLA

Row | Structure (SMILES) | GI50 (HCT 116 (colon) cells) | GI50 (NCI-H460 (lung) cells) | GI50 (U251 (glioma) cells) | IC50 [1] | HDAC Inhibition % (1 μM) [1] | HDAC Inhibition % (10 μM) [1] | IC50 (recombinant HDAC1 enzyme)
1 | Nc1ccccc1NC(=O)c1ccc(C=C(C(=O)NC2CC2)c2ccccc2)cc1 [Example 107, N-(2-Aminophenyl)-4-(3-(cyclopropylamino)-2-phenyl-3-oxoprop-1-en-1-yl)benzamide] | 2 µM | 5 µM | 4.5 µM | 12 µM | 34.1% | 58.4% | 0.18 µM
2 | Nc1ccccc1NC(=O)c1ccc(/C=C(/C(=O)NC2CC2)c2cccc(F)c2)cc1 [Example 110, N-(2-Aminophenyl)-4-(3-(cyclopropylamino)-2-(3-fluorophenyl)-3-oxoprop-1-en-1-yl)benzamide] | 0.3 µM | 5.5 µM | 5 µM | 5 µM | 45.7% | 71.4% | 0.15 µM
3 | Nc1ccccc1NC(=O)c1ccc(/C=C(/C(=O)NC2CC2)c2ccc3c(c2)OCO3)cc1 [Example 111, N-(2-Aminophenyl)-4-(3-(cyclopropylamino)-2-(1,3-benzodioxol-5-yl)-3-oxoprop-1-en-1-yl)benzamide] | 1.1 µM | 2.1 µM | 1.5 µM | 8 µM | 24.8% | 52.2% | 0.1 µM
4 | Nc1ccccc1NC(=O)c1ccc(/C=C(/C(=O)NC2CC2)c2ccccc2Cl)cc1 [Example 112, N-(2-Aminophenyl)-4-(3-(cyclopropylamino)-2-(2-chlorophenyl)-3-oxoprop-1-en-1-yl)benzamide] | 6 µM | 1.1 µM | 20 µM | 4.5 µM | 29.9% | 55.7% | 0.049 µM
5 | Nc1ccccc1NC(=O)c1ccc(/C=C(/C(=O)NC2CC2)c2cccc(Cl)c2)cc1 [Example 114, N-(2-Aminophenyl)-4-(3-(cyclopropylamino)-2-(3-chlorophenyl)-3-oxoprop-1-en-1-yl)benzamide] | 0.4 µM | 5 µM | 4 µM | 5.5 µM | 34.5% | 59.0% | 0.044 µM
6 | Nc1ccccc1NC(=O)c1ccc(/C=C(/C(=O)NC2CC2)c2ccc(F)c(F)c2)cc1 [Example 115, N-(2-Aminophenyl)-4-(3-(cyclopropylamino)-2-(3,4-difluorophenyl)-3-oxoprop-1-en-1-yl)benzamide] | 0.1 µM | 6 µM | 15 µM | 8.3 µM | 31.1% | 50.1% | 0.068 µM
7 | COc1ccc(/C(=C\c2ccc(C(=O)Nc3ccccc3N)cc2)C(=O)NC2CC2)cc1 [Example 116, N-(2-Aminophenyl)-4-(3-(cyclopropylamino)-2-(4-methoxyphenyl)-3-oxoprop-1-en-1-yl)benzamide] | 0.4 µM | 6.1 µM | 11 µM | 9 µM | 32.4% | 55.7% | 0.06 µM
8 | O=C(NC1CC1)/C(=C/c1ccc(C(=O)NCc2ccc(C(=O)NO)cc2)cc1)c1ccc2c(c1)OCO2 [Example 157, 4-(3-(Cyclopropylamino)-2-[benzodioxol-5-yl]-3-oxoprop-1-en-1-yl)-N-(4-(hydroxycarbamoyl)benzyl)benzamide] | 19 µM | 18 µM | 60 µM | – | 82.2% | 96.6% | –
9 | O=C(NC1CC1)/C(=C/c1ccc(C(=O)NCc2ccc(C(=O)NO)cc2)cc1)c1ccc(C(F)(F)F)cc1 [Example 158, 4-(3-(Cyclopropylamino)-2-(4-trifluoromethylphenyl)-3-oxoprop-1-en-1-yl)-N-(4-(hydroxycarbamoyl)benzyl)benzamide] | 30 µM | 25 µM | 22 µM | – | 88.7% | 98.0% | –
10 | O=C(NC1CC1)/C(=C/c1ccc(C(=O)NCc2ccc(C(=O)NO)cc2)cc1)c1ccc(F)c(F)c1 [Example 159, 4-(3-(Cyclopropylamino)-2-(3,4-difluorophenyl)-3-oxoprop-1-en-1-yl)-N-(4-(hydroxycarbamoyl)benzyl)benzamide] | 12 µM | 20 µM | 11 µM | – | 89.3% | 97.0% | –
11 | O=C(CCCCCNC(=O)c1ccc(/C=C(/C(=O)NC2CC2)c2ccccc2)cc1)NO [Example 161] | 8.2 µM | 5.3 µM | 3.2 µM | 0.006 µM | 87.8% | 97.5% | –
12 | Cc1ccc(/C(=C\c2ccc(C(=O)NCCCCCC(=O)NO)cc2)C(=O)NC2CC2)cc1 [Example 162, 4-(3-(Cyclopropylamino)-2-(4-methylphenyl)-3-oxoprop-1-en-1-yl)-N-(6-(hydroxyamino)-6-oxohexyl)benzamide] | 19 µM | 46 µM | 2 µM | – | 86.1% | 95.7% | –
13 | O=C(CCCCCNC(=O)c1ccc(/C=C(/C(=O)NC2CC2)c2ccccc2F)cc1)NO [Example 163, 4-(3-(Cyclopropylamino)-2-(2-fluorophenyl)-3-oxoprop-1-en-1-yl)-N-(6-(hydroxyamino)-6-oxohexyl)benzamide] | 32 µM | 10 µM | 41 µM | – | 81.7% | 97.7% | –
14 | O=C(CCCCCNC(=O)c1ccc(/C=C(/C(=O)NC2CC2)c2cccc(F)c2)cc1)NO [Example 164, 4-(3-(Cyclopropylamino)-2-(3-fluorophenyl)-3-oxoprop-1-en-1-yl)-N-(6-(hydroxyamino)-6-oxohexyl)benzamide] | 15 µM | 28 µM | 30 µM | – | 91.9% | 100.0% | –
15 | O=C(CCCCCCC(=O)Nc1ccc(/C=C(/C(=O)NC2CC2)c2ccc(F)cc2)cc1)NO [Example 165, N-(4-(3-(Cyclopropylamino)-2-(4-fluorophenyl)-3-oxoprop-1-en-1-yl)phenyl)-N′-hydroxyoctanediamide] | 5.6 µM | 15 µM | 11 µM | – | 91.5% | 96.8% | –

Source: patent US8450525B2, “Histone deacetylase inhibitors” (Orchid Chemicals & Pharmaceuticals Limited, priority 2007, dated 2013)
